ChEMBL document CHEMBL1914292, “Synthesis and in vitro cytotoxic activity of novel pyrazolo[3,4-d]pyrimidines and related pyrazole hydrazones toward breast adenocarcinoma MCF-7 cell line” (Bioorg Med Chem, 2011)
pIC50: −log10 of the molar value.

Columns and labels:
MCF7 [1] = assay: Cytotoxicity against human MCF7 cells assessed as nitric oxide level per mg protein at 1/10 of IC50 after 24 hrs (reference value: 1.9 +/- 0.16 umol); assay type: functional
MCF7 [2] = assay: Induction of oxidative stress in human MCF7 cells assessed as GSH level per mg of protein at 1/10 of IC50 after 24 hrs (reference value: 40 +/- 5 nmol); assay type: functional
MCF7 [3] = assay: Induction of oxidative stress in human MCF7 cells assessed as glutathione peroxidase activity per mg of protein at 1/10 of IC50 after 24 hrs (reference value: 9.3 +/- 1 U); assay type: functional
MCF7 [4] = assay: Cytotoxicity against human MCF7 cells assessed as DNA level per 10 '6 cells at 1/10 of IC50 after 24 hrs (reference value: 8.5 +/- 0.8 ug); assay type: functional
MCF7 [5] = assay: Induction of oxidative stress in human MCF7 cells assessed as catalase activity per mg of protein at 1/10 of IC50 after 24 hrs (reference value: 7.6 +/- 0.7 U); assay type: functional
MCF7 [6] = assay: Cytotoxicity against human MCF7 cells assessed as protein level per 10 '6 cells at 1/10 of IC50 after 24 hrs (reference value: 110.5 +/- 12.3 ug); assay type: functional
MCF7 [7] = assay: Cytotoxicity against human MCF7 cells after 48 hrs by SRB colorimetric assay; assay type: functional, cell-based; details: MCF7, 48 h
MCF7 [8] = assay: Induction of oxidative stress in human MCF7 cells assessed as hydrogen peroxide level per mg of protein at 1/10 of IC50 after 24 hrs (reference value: 15.7 +/- 1.6 nmol); assay type: functional
MCF7 [9] = assay: Induction of oxidative stress in human MCF7 cells assessed as superoxide dismutase activity per mg of protein at 1/10 of IC50 after 24 hrs (reference value: 40.3 +/- 4.75 U); assay type: functional
MCF7 [10] = assay: Cytotoxicity against human MCF7 cells assessed as RNA level per 10 '6 cells at 1/10 of IC50 after 24 hrs (reference value: 15.3 +/- 1.6 ug); assay type: functional

| Structure (SMILES) | Activity (MCF7 [1]) [µmol] | Activity (MCF7 [2]) [nmol] | Activity (MCF7 [3]) [U] | Activity (MCF7 [4]) [µg] | Activity (MCF7 [5]) [U] | Activity (MCF7 [6]) [µg] | pIC50 (MCF7 [7]) | Activity (MCF7 [8]) [nmol] | Activity (MCF7 [9]) [U] | Activity (MCF7 [10]) [µg] |
| --- | --- | --- | --- | --- | --- | --- | --- | --- | --- | --- |
| COc1cc(/C=N/n2c(C)nc3c(cnn3S(=O)(=O)c3ccc(Cl)cc3)c2=O)cc(OC)c1OC | 2.8 | 34.2 | 6.8 | 5.3 | 4.3 | 78.3 | 4.56 | 27.8 | 80 | 7.22 |
| COc1ccc(/C=N/n2c(C)nc3c(cnn3S(=O)(=O)c3ccc(Cl)cc3)c2=O)cc1OC |  |  |  |  |  |  | 4.47 |  |  |  |
| COc1ccc(/C=N/NC(=O)c2cn[nH]c2NC(C)=O)cc1OC |  |  |  |  |  |  | 4.43 |  |  |  |
| COc1ccc(/C=N/NC(=O)c2cn[nH]c2NC(C)=O)cc1 |  |  |  |  |  |  | 4.21 |  |  |  |
| COc1ccc(/C=N/n2c(C)nc3c(cnn3-c3ccc(Cl)cc3)c2=O)cc1OC |  |  |  |  |  |  | 4.60 |  |  |  |
| COc1cc(C(=O)Nn2c(C)nc3c(cnn3S(=O)(=O)c3ccc(Cl)cc3)c2=O)cc(OC)c1OC |  |  |  |  |  |  | 4.45 |  |  |  |
| COc1cc(/C=N/NC(=O)c2cn[nH]c2NC(C)=O)cc(OC)c1OC | 3 | 30.11 | 7.33 | 6.1 | 5.85 | 85.8 | 4.49 | 25.6 | 75.44 | 8.8 |
| COc1cc(/C=N/n2c(C)nc3c(cnn3-c3ccc(Cl)cc3)c2=O)cc(OC)c1OC | 4.4 | 17.8 | 4.85 | 3 | 2.2 | 27.5 | 5.12 | 53.3 | 110 | 2.6 |
| COc1ccc(/C=N/n2c(C)nc3c(cnn3S(=O)(=O)c3ccc(Cl)cc3)c2=O)cc1 |  |  |  |  |  |  | 4.38 |  |  |  |
| Cc1nc2c(cnn2S(=O)(=O)c2ccc(Cl)cc2)c(=O)n1/N=C/c1ccccc1 |  |  |  |  |  |  | 4.65 |  |  |  |
| CC(=O)Nc1[nH]ncc1C(=O)N/N=C/c1ccccc1 |  |  |  |  |  |  | 4.38 |  |  |  |
| COc1cc(/C=N/n2c(C)nc3c(cnn3-c3ccc(Cl)cc3)c2=O)ccc1O | 3.6 | 23.5 | 5.4 | 4.5 | 3.5 | 42.6 | 4.70 | 39.4 | 100.3 | 3.2 |
| Cc1nc2c(cnn2-c2ccc(Cl)cc2)c(=O)n1/N=C/c1ccccc1 | 3 | 30.4 | 6 | 5.11 | 3.82 | 55.4 | 4.64 | 30 | 95.25 | 5 |
| COc1ccc(/C=N/n2c(C)nc3c(cnn3-c3ccc(Cl)cc3)c2=O)cc1 | 2.9 | 36.3 | 8 | 7 | 7.4 | 80.2 | 4.41 | 24.8 | 50 | 12 |
| Cc1nc2c(cnn2-c2ccccc2)c(=O)n1-c1cnc2ccccc2c1 |  |  |  |  |  |  | 5.82 |  |  |  |
